Patent US9839618B2, “Compositions and methods relating to proliferative diseases” (The Penn State Research Foundation, priority 2010, dated 2017)
Where two headings read alike, the source gives them in different places.

System: 1205 Lu metastatic melanoma cells
Assay: MTS assay viability IC50, 1205 Lu
Format: cell-based, human
Settings: for IC50: Homo sapiens, 1205Lu; for Selectivity ratio, fibroblasts versus 1205Lu: activity against fibroblasts FF2441 compared to melanoma cells
Description: The efficacy of leelamine to kill other cancer types is measured and the IC50 for cell lines derived from carcinomas of breast, lung, prostate, connective tissue, pancreas and colon determined. The MTS assay as described in Sharma, A. et al., Clin Cancer Res, 2009, 15:1674-85; and Madhunapantula, S. V. et al., Mol Cancer Ther, 2008, 7:1297-308 is used to establish the IC50 at 24, 48 and 72 hours of leelamine treatment for normal human epidermal melanocytes (FOM103), normal skin fibroblast cells (FF2441), normal skin keratinocytes (HFK) and compared to melanocytic lesion cells from the radial-, vertical- and metastatic melanoma stages. 5×10^3 cells per well in 100 μL of media are plated and grown in a 96-well plate for 48 to 72 hours and treated with either DMSO vehicle control or 0.62 to 40 μmol/L of leelamine for 24, 48 or 72 hours. IC50 values for each compound in μmol/L for respective cell lines are measured from three independent experiments using GraphPad Prism version 4.01 (GraphPad Software, La Jolla, Calif.). Leelamine is found to be not toxic to normal cells and effective to kill melanoma cells as well as non-melanoma cancer cells as shown in Table 1 in FIG. 20. Leelamine is 3- to 4-fold more specific at killing metastatic melanoma than normal cells, supporting cancer therapeutic utility at concentrations<2 μmol/L.
5×10^3 cells per well in 100 μL of media are plated and grown in a 96-well plate for 48 to 72 hours and treated with either DMSO vehicle control or 0.62 to 40 μmol/L of leelamine for 24, 48 or 72 hours. IC50 values for each compound in μmol/L for respective cell lines are measured from three independent experiments using GraphPad Prism version 4.01 (GraphPad Software, La Jolla, Calif.).
The IC50 and effect of liposomal preparations of leelamine on viability of normal human melanocytes, fibroblasts and melanoma cells UACC 903 and 1205 Lu are measured using the MTS assay (Promega, Madison, Wis.). Empty liposomes or liposomes containing abietic acid are used as controls. 5×10^3 cells per well in 100 μL of media are plated and grown in a 96-well plate for 48 or 72 hours for melanoma and normal cell lines, respectively. The cells are then treated with 0.62 to 40 μmol/L of liposome alone, a liposomal preparation of abietic acid, or with Nanolipolee-007 for 24 hours. IC50 values for each liposome in μmol/L for respective cell lines are measured from three independent experiments using GraphPad Prism version 4.01 (GraphPad Software, La Jolla, Calif.). Nanolipolee-007 retains the growth inhibitory activity of leelamine in killing melanoma cells in culture and specifically kills melanoma cells compared to normal cells, FIG. 24.
Dehydroabietylamine, its N-substituted derivatives and the corresponding dihydroabietylamine and its N-substituted derivatives are tested for their capability to inhibit cell growth of cancer cell lines, including melanoma (UACC 903, 1205Lu), breast (MCF-7), fibrosarcoma (HT-1080), colon (Caco-2), and prostate (PC-3) cancer cell lines. Viability and IC50 of normal human fibroblasts and cell lines from melanoma and other malignancies following treatment with all the agents are measured using the MTS assay (Promega, Madison, Wis.). Human fibroblast FF2441 cells, metastatic melanoma cell lines 1205 Lu and UACC 903 as well as cancer cell lines representing sarcoma (HT-1080), prostate (PC-3, LNCaP), breast (MCF-7) and lung (A-549) are maintained in DMEM (Invitrogen, Carlsbad, Calif.) supplemented with 10% FBS (Hyclone, Logan, Utah) in a 5% CO2 atmosphere, humidified 37° C. incubator. 5×10^3 cells per well in 100 μL of media are plated and grown in a 96-well plate for 48 to 72 h and treated with either DMSO vehicle control or 0.62 to 40 μmol/L for 24, 48 or 72 h. IC50 values for each compound in […] for respective cell lines are measured from three independent experiments using GraphPad Prism version 4.01 (GraphPad Software, La Jolla, Calif.). […]

[1] = Table 4, read-out: IC50 Metastatic Melanoma Cell line 1205Lu
[2] = Table 6, read-out: IC50 Metastatic melanoma 1205 Lu

SMILES | IC50 [1] [µM] | IC50 [2] [µM] | IC50 (Example 8, read-out: IC50 1205Lu) [µM] | Selectivity ratio, fibroblasts versus 1205Lu
CC(C)C1=CC2=CCC3[C@](C)(CCC[C@@]3(C)C(=O)O)C2CC1 (stereo partly drawn) [Abietic acid, (1R,4aR)-1,4a-dimethyl-7-(propan-2-yl)-1,2,3,4,4a,4b,5,6,10,10a-decahydrophenanthrene-1-carboxylic acid, reference compound] | > 100 | > 100 | – | –
CC(C)C1=CC2=CCC3[C@](C)(CN)CCC[C@]3(C)C2CC1 (stereo partly drawn) [Compound 4a, {[(1R,4aR)-1,4a-dimethyl-7-(propan-2-yl)-1,2,3,4,4a,4b,5,6,10,10a-decahydrophenanthren-1-yl]methyl}amine] | 2.87 ± 0.07 | 2.87 ± 0.07 | 2.87 | ~3
CC(C)c1ccc2c(c1)CCC1[C@](C)(CNC(=O)C(F)(F)F)CCC[C@]21C (stereo partly drawn) [Compound 5a, N-{[(1R,4aS)-1,4a-dimethyl-7-(propan-2-yl)-1,2,3,4,4a,9,10,10a-octahydrophenanthren-1-yl]methyl}-2,2,2-trifluoroacetamide] | 2.08 ± 0.05 | 2.08 ± 0.05 | – | > 2
CC(C)c1ccc2c(c1)CCC1[C@](C)(CN)CCC[C@]21C (stereo partly drawn) [Leelamine, [(1R,4aS)-1,4a-dimethyl-7-(propan-2-yl)-1,2,3,4,4a,9,10,10a-octahydrophenanthren-1-yl]methanamine] | – | 1.93 ± 0.16 | – | > 4
